# System: T1, acetate kinase
# T1 construct: gene ackA; purified recombinant acetate kinase
# Assay: ITC at […]°C ([…] protein, […] compound); also bead pull-down with MS and Western blot, and increased activity of the purified enzyme at […]
# Format: binding, Geobacillus sp. E263
structure (smiles),measurement,value
CCCCCCCCCCCCCCCC(N)=O [palmitic amide],Kd,13.2 ± 28.1 µM

# — article PMC9224243, “Palmitic Amide Triggers Virus Life Cycle via Enhancing Host Energy Metabolism” (Frontiers in Microbiology, 2022)
